According to the NIST ThermoML archive (doi:10.1016/j.jct.2017.06.013):

Assay: xn = mol fraction of the nth substance listed
Conditions: Liquid, Vibrating tube method

CC(C)OC(C)C [diisopropyl ether] + CCCCCCO
mass density [kg/m3]
Conditions	x1 = 0.1524	x1 = 0.3196	x1 = 0.4906	x1 = 0.6974	x1 = 0.8457
333.15 K, 140000 kPa	–	–	831.4	817.4	807
353.15 K, 100 kPa	759.2	741.7	722.5	698	679.1
353.15 K, 500 kPa	759.5	742.1	723	698.5	679.8
353.15 K, 1000 kPa	760	742.7	723.6	699.3	680.7
353.15 K, 2000 kPa	761	743.8	724.9	700.8	682.5
353.15 K, 5000 kPa	764	747.1	728.8	705.4	687.6
353.15 K, 10000 kPa	768.7	752.4	734.8	712.3	695.5
353.15 K, 15000 kPa	773.1	757.3	740.2	718.7	702.5
353.15 K, 20000 kPa	777.3	761.9	745.3	724.5	708.9
353.15 K, 30000 kPa	785	770.4	754.6	735	720.4
353.15 K, 40000 kPa	792	778	762.9	744.3	730.4
353.15 K, 50000 kPa	798.5	785	770.5	752.6	739.4
353.15 K, 60000 kPa	804.6	791.6	777.6	760.6	747.7
353.15 K, 70000 kPa	810.3	797.7	784.2	767.6	755.2
353.15 K, 80000 kPa	815.7	803.3	790.1	774.1	762.1
353.15 K, 90000 kPa	820.8	808.9	796.1	780.4	768.7
353.15 K, 100000 kPa	825.7	814	801.5	786.2	774.8
353.15 K, 110000 kPa	830.4	818.9	806.7	791.7	780.5
353.15 K, 120000 kPa	834.9	823.6	811.6	796.9	786
353.15 K, 130000 kPa	839.1	828	816.3	801.9	791.1
353.15 K, 140000 kPa	843.2	832.4	820.8	806.6	796
373.15 K, 100 kPa	741.8	723.3	702.7	676.5	656.3
373.15 K, 500 kPa	742	723.5	703.1	677	657
373.15 K, 1000 kPa	742.6	724.1	703.9	678	658.1
373.15 K, 2000 kPa	743.8	725.5	705.4	679.9	660.3
373.15 K, 5000 kPa	747.1	729.2	709.9	685.2	666.5
373.15 K, 10000 kPa	752.4	735.3	716.7	693.4	675.7
373.15 K, 15000 kPa	757.3	740.8	723	700.7	683.8
373.15 K, 20000 kPa	761.9	745.9	728.8	707.3	691.2
373.15 K, 30000 kPa	770.5	755.4	739.1	719.1	704.1
373.15 K, 40000 kPa	778.2	763.8	748.4	729.4	715.3
373.15 K, 50000 kPa	785.2	771.3	756.6	738.5	725
373.15 K, 60000 kPa	791.8	778.4	764.2	746.9	733.9
373.15 K, 70000 kPa	797.9	784.9	771.3	754.5	742
373.15 K, 80000 kPa	803.8	791.2	778	761.8	749.5
373.15 K, 90000 kPa	809.2	796.9	784	768.3	756.4
373.15 K, 100000 kPa	814.3	802.4	789.8	774.4	762.8
373.15 K, 110000 kPa	819.4	807.6	795.3	780.3	769
373.15 K, 120000 kPa	824.2	812.6	800.6	785.9	774.7
373.15 K, 130000 kPa	828.6	817.3	805.5	791.1	780.2
373.15 K, 140000 kPa	833	821.8	810.2	796.1	785.3
393.15 K, 500 kPa	724.7	705	683.5	655.7	634.2
393.15 K, 1000 kPa	725.4	705.7	684.4	656.8	635.6
393.15 K, 2000 kPa	726.7	707.3	686.3	659.1	638.4
393.15 K, 5000 kPa	730.5	711.7	691.5	665.6	645.9
393.15 K, 10000 kPa	736.6	718.7	699.5	675.3	657
393.15 K, 15000 kPa	742.1	724.9	706.6	683.6	666.4
393.15 K, 20000 kPa	747.3	730.7	713.2	691.2	674.9
393.15 K, 30000 kPa	756.7	741.1	724.7	704.4	689.3
393.15 K, 40000 kPa	765.3	750.4	735	715.8	701.7
393.15 K, 50000 kPa	772.8	758.6	743.9	725.7	712.2
393.15 K, 60000 kPa	779.9	766.4	752.2	734.8	721.9
393.15 K, 70000 kPa	786.7	773.5	759.9	743.1	730.7
393.15 K, 80000 kPa	792.8	779.9	766.8	750.5	738.5
393.15 K, 90000 kPa	798.6	786.1	773.4	757.6	745.9
393.15 K, 100000 kPa	804.1	791.8	779.5	764.1	752.7
393.15 K, 110000 kPa	809.4	797.5	785.4	770.3	759.2
393.15 K, 120000 kPa	814.4	802.7	790.8	776.1	765.1
393.15 K, 130000 kPa	819.1	807.6	796	781.5	770.8
393.15 K, 140000 kPa	823.7	812.4	801	786.8	776.3
